Experimental data as given in patent US9453056B2, “Nucleic acid construct comprising nucleic acid derived from genome of hepatitis C virus of genotype 3a” (priority 2011, dated 2016).

How the values were obtained:
[1] = system: S310A subgenomic replicon-replicating cells (clones); assay: Effect of antiviral agents on replicon RNA replication in S310A subgenomic replicon-replicating cells (quantification of replicon RNA copy number); format: cell-based, hepatitis C virus of genotype 3a (S310A strain); conditions: S310A subgenomic replicon-replicating cell clones 6, 9 and 10; inhibitor for 3 days; relative to no inhibitor (100%)
Procedure: (§1) With the use of the S310A subgenomic replicon-replicating cells of the established 10 clones (Clone Nos. 1 to 10), the copy number of intracellular HCV subgenomic replicon RNA was quantified. The quantification of copy number of HCV subgenomic replicon RNA was carried out in accordance with the technique described in Takeuchi et al. (Gastroenterology, 1999, Vol. 116, pp. 636-642) and Kato et al. (Gastroenterology, 2003, Vol. 125, pp. 1808-1817).
(§2) This technique is a detection system using TaqMan probe method (PerkinElmer Inc., Applied Biosystems Inc.). Specifically, total RNA was first extracted from the S310A subgenomic replicon-replicating cells in accordance with a conventional technique. Subsequently, cDNA was synthesized from total RNA using rTth DNA polymerase, and the synthesized cDNA template was amplified via PCR using the primers: 5′-CGGGAGAGCCATAGTGG-3′ (SEQ ID NO: 24) and 5′-AGTACCACAAGGCCTTTCG-3′ (SEQ ID NO: 25). At this time, a probe having the nucleotide sequence 5′-[…]-3′ (SEQ ID NO: 26) to which a fluorescent dye, 6′-carboxy-fluorescein (FAM), had been bound at the 5′ terminus and a quencher, 6′-carboxytetramethyl-rhodamine (TAMRA), had been bound at the 3′ terminus was added. In the presence of such probe, the probe that had hybridized to the template cDNA is degraded because of 5′ exonuclease activity of the Taq polymerase during the process of amplification, the fluorescent dye is released from the probe, suppression by the quencher is released, thereby emitting fluorescence. Thus, such fluorescence was detected with ABI Prism 7700 (ParkinElmer Inc., Applied Biosystems Inc.) to quantify the copy number of HCV subgenomic replicon RNA.
The S310A subgenomic replicon-replicating cells (clones) and the JFH-1 subgenomic replicon-replicating cells were seeded on 24-well plates at a density of 5×10^4 cells/well, interferon-α (IFN-α), NS3 protease inhibitors (VX-950 (telaprevir) (Lin et al, Journal of Biological Chemistry, 2004, Vol. 279, pp. 17508-17514) and BILN-2061 (Daniel et al, Nature, 2003, Vol. 426, pp. 186-189)), and NS5B polymerase inhibitors JTK-109 (Hirashima et al, Journal of Medicinal Chemistry, 2006, Vol. 49, pp. 4721-4736) and PSI-6130 (Clark et al, Journal of Medicinal Chemistry, 2005, Vol. 48, pp. 5504-5508) were added to the wells on the following day, and the reaction was allowed to proceed for 3 days. Thereafter, the cells were recovered, total RNAs were extracted therefrom, and the copy number of HCV subgenomic replicon RNA in the cells was quantified in the same manner as in Example 4.
In each figure, the horizontal axis represents the concentration of an inhibitor added. The vertical axis represents change ratio of HCV RNA levels, which is the percentage (%) of the amount of subgenomic replicon RNA per μg of total RNA from cells when an inhibitor was added, relative to the amount of subgenomic replicon RNA per μg of total RNA from cells when no inhibitor was added (0 IU or 0 M) (defined as 100%). In the Figures, the leftmost bar (white) represents the results for the JFH-1 subgenomic replicon-replicating cells, the second bar from the left (light gray) represents the results for the S310A subgenomic replicon-replicating cell clone 6, the third bar from the left (black) represents the results for the S310A subgenomic replicon-replicating cell clone 9, and the rightmost bar (dark gray) represents the results for the S310A subgenomic replicon-replicating cell clone 10 at each inhibitor concentration.

[2] = system: JFH-1 subgenomic replicon-replicating cells; assay: Effect of antiviral agents on replicon RNA replication in JFH-1 subgenomic replicon-replicating cells (quantification of replicon RNA copy number); format: cell-based, hepatitis C virus of genotype 2a (JFH-1 strain); conditions: inhibitor for 3 days, relative to no inhibitor (100%)
Procedure: as §1, §2
As a control for comparison, the cells into which HCV subgenomic replicon RNA of the JFH-1 strain of genotype 2a had been introduced (the JFH-1 subgenomic replicon-replicating cells) were used. The JFH-1 strain HCV subgenomic replicon RNA expression vector (comprising the 5′ untranslated region (5′ UTR), the sequence of 57 nucleotides at the 5′ terminus of the Core protein coding region, the neomycin resistance gene, the EMCV IRES sequence, the nucleotide sequences encoding the NS3 protein, the NS4A protein, the NS4B protein, the NS5A protein and the NS5B protein, and the 3′ untranslated region (3′ UTR) of the HCV JFH-1 strain in this order from the 5′ to 3′ direction) was constructed and HCV subgenomic replicon RNA was produced in accordance with the techniques described in Kato et al. (Gastroenterology, 2003, Vol. 125, pp. 1808-1817) and International Publication No. WO 04/104198. Introduction thereof into the Huh cells and quantification of the copy number were carried out in the manner as described above. […]

HCV genotype 3a = conditions: Reesink et al., Gastroenterology, 2010; cited from earlier work
[3] = system: HCV genotypes 1 to 6 except for genotype 3a; conditions: Reesink et al., Gastroenterology, 2010; cited from earlier work
HCV genotype 1b = conditions: Mori et al., 1992; cited from earlier work
HCV genotype 2a or 3a = conditions: compared with genotype 1b; Mori et al., 1992; cited from earlier work

Molecule	replication of the S310A subgenomic replicon RNAs (change ratio of HCV RNA levels) [1]	replication of the JFH-1 subgenomic replicon RNA (change ratio of HCV RNA levels) [2]	also measured
O=C(O)c1ccc2c(c1)nc(-c1ccc(OCc3cc(N4CCCC4=O)ccc3-c3ccc(Cl)cc3)cc1F)n2C1CCCCC1 [JTK-109]	markedly inhibited	not to be inhibited	
COc1ccc2c(O[C@@H]3C[C@H]4C(=O)N[C@]5(C(=O)O)C[C@H]5/C=C\CCCCC[C@H](NC(=O)OC5CCCC5)C(=O)N4C3)cc(-c3csc(NC(C)C)n3)nc2c1 [BILN-2061]	did not inhibit	exert inhibitory activity	
COc1ccc2c(O[C@@H]3C[C@H]4C(=O)N[C@]5(C(=O)NS(=O)(=O)C6CC6)C[C@H]5/C=C\CCCCN(C)C(=O)[C@@H]4C3)cc(-c3nc(C(C)C)cs3)nc2c1C [TMC435]			inhibitory effects on genotype 3a (HCV genotype 3a): weak inhibitory effects; inhibitory effects on genotypes 1 to 6 except for genotype 3a [3]: strong inhibitory effects
interferon			therapeutic effect of interferon on genotype 1b (HCV genotype 1b): low; therapeutic effect of interferon on genotype 2a or 3a (HCV genotype 2a or 3a): higher
CCC[C@H](NC(=O)[C@@H]1[C@H]2CCC[C@H]2CN1C(=O)[C@@H](NC(=O)[C@@H](NC(=O)c1cnccn1)C1CCCCC1)C(C)(C)C)C(=O)C(=O)NC1CC1 [VX-950, telaprevir]	did not inhibit		
C[C@@]1(F)[C@H](O)[C@@H](CO)O[C@H]1n1ccc(N)nc1=O [PSI-6130]	inhibited	inhibited	
IFN-α	markedly inhibited	markedly inhibited	
